“And” between values parts separate entries of the source, which are not always exact repeats. Equal values may be shown once. Read-outs that look alike come from different tables or passages of the source. Marks after values point to notes of the source that are not given here.
Tests used:
[1] = test system: EMT-6 cancer cells; experiment: EMT-6 subcutaneous syngeneic mouse tumor model (Example 48); type: in vivo, BALB/C mice; conditions: 40 mg/kg, IP
Method: (§1) This example describes in vivo studies that evaluated the anti-cancer efficacy of ARI-143, ARI-164, ARI-165, and ARI-186 in syngeneic mouse tumor models. Mice implanted subcutaneously with EMT-6 or Pan02 cancer cells were treated with ARI-143, ARI-164, ARI-165, ARI-186, or vehicle controls, as described below.
(§2) A monolayer culture of tumor cells was maintained in vitro in DMEM or RPMI1640 medium supplemented with 10% fetal bovine serum at 37° C. in an atmosphere of 5% CO2. Cells in exponential growth phase were harvested and quantitated by cell counter before tumor inoculation. The cell lines used are described in the table below.
(§3) Two subcutaneous syngeneic mouse tumor models were generated by innoculating female BALB/C or C57BL/6 mice with cancer cells at their right lower or front flank as detailed in the table below:
(§4) Each mouse was inoculated subcutaneously with tumor cells in 0.1 mL of PBS. Treatments were started when the mean tumor size reached approximately 80-120 mm^3 (around 100 mm^3). The administration of the test compounds and the animal number in each study group are shown in the study design. The date of tumor cell inoculation was denoted as day 0.
(§5) ARI-143, ARI-164, and ARI-165 were dissolved in DMSO at the final concentration of 26.7 mg/ml and stored at room temperature. In Pan02 studies of ARI-164 and ARI-186, both compounds were dissolved in 100% PEG400.
Randomization of animals was started when the mean tumor size reached approximately 90 mm^3 to form the mouse study groups. The randomization was-performed based on “Matched distribution” method using the multi-task method (StudyDirector™ software, version 3.1.399.19)/randomized block design. The mouse groups (ten in each group) were treated with vehicle (DMSO or PEG400) or the test compounds at a dose of 26-80 mg/kg by intraperitoneal (i.p.). injection, QD for 28 days or longer.
(§6) After tumor cell inoculation, the mice were checked daily for morbidity and mortality. During routine monitoring, the mice were checked for tumor growth and any effects of the treatment on behavior such as mobility, food and water consumption, body weight gain/loss (body weights were measured twice per week after randomization), eye/hair matting, and any other abnormalities. Mortality and observed clinical signs were recorded for individual mice in detail.
(§7) Tumor volumes were measured twice per week in two dimensions using a caliper, and the volume was expressed in mm^3 using the formula: V=(L×W×W)/2, where V is tumor volume, L is tumor length (the longest tumor dimension) and W is tumor width (the longest tumor dimension perpendicular to L). Dosing as well as tumor and body weight measurements was conducted in a Laminar Flow Cabinet. The body weights and tumor volumes were measured by using StudyDirector™ software (version 3.1.399.19). Dosing Holiday
(§8) Tumor growth inhibition percentage (TGI %) is an indicator for antitumor activity of a drug compound, and expressed as: TGI(%)=100×(1−T/C), where T and C are the mean tumor volume (or weight) of the treated and control groups, respectively, on a given day. Statistical analysis of the difference in mean tumor volume (MTV) among the groups was conducted using the data collected on the day when the MTV of the vehicle group reached the humane endpoints, so that TGI could be derived for all or most mice enrolled in the study.

[2] = In vivo pharmacokinetic studies in mice; set-up: species or system Balb/C mice
[3] = test system: Pan02 cancer cells; experiment: Pan02 subcutaneous syngeneic mouse tumor model (Example 48); type: in vivo, C57BL/6 mice; conditions: for TGI: IP; for tumor inhibition versus vehicle: Pan02 tumors
Method: as §1, §2, §3, §4, §5
Randomization of animals was started when the mean tumor size reached approximately 90 mm^3 to form the mouse study groups. The randomization was-performed based on “Matched distribution” method using the multi-task method (StudyDirector™ software, version 3.1.399.19)/randomized block design. […]
as §6, §7, §8

[4] = test system: H22; experiment: H22 syngeneic mouse tumor model, ARI-164 / anti-PD-1 / combination (Example 49); type: in vivo
Method: (§9) In this example, the in vivo anti-tumor efficacy of a combination of ARI-164 with an anti-PD-1 antibody was evaluated using a panel of seven subcutaneous syngeneic mouse tumor models.
(§10) Seven subcutaneous syngeneic mouse tumor models were generated by innoculating female BALB/C or C57BL/6 mice with cancer cells at their right lower or right front flank followed by randomization as detailed in Table 10 below.
(§11) A solution of a rat monoclonal anti-mouse PD-1 antibody (isotype IgG2a, κ) at a concentration of 6.61 mg/ml was obtained from BioXcell (InVivoMAb anti-mouse PD-1 (CD279), Clone RMP1-14, Cat #BE0146)) and store at 4° C. The antibody solution was diluted with PBS to obtain a 1 mg/ml dosing solution.
(§12) ARI-164 powder was stored at −20° C. The powder of the compound was dissolved in DMSO to obtain dosing solutions at 26.7 mg/ml for administration to mice at 40 mg/kg, respectively.
Seven studies using the seven subcutaneous syngeneic mouse tumor models were performed. In each study, 80 mice were enrolled and randomly allocated to eight different study groups, with 10 mice in each study group. The mean tumor size at randomization was approximately 80-120 mm^3 (around 100 mm^3). Randomization was performed based on “Matched distribution” randomization method (StudyDirector™ software, version 3.1.399.19). […]
(§13) The data was collected and analyzed as described above in Example 48.

[5] = test system: 4T-1; experiment: 4T-1 syngeneic mouse tumor model, ARI-164 / anti-PD-1 / combination (Example 49); type: in vivo; conditions: 4T-1 model
Method: as §9, §10, §11, §12
Seven studies using the seven subcutaneous syngeneic mouse tumor models were performed. In each study, 80 mice were enrolled and randomly allocated to eight different study groups, with 10 mice in each study group. The mean tumor size at randomization was approximately 80-120 mm^3 (around 100 mm^3). Randomization was performed based on “Matched distribution” randomization method (StudyDirector™ software, version 3.1.399.19). […] All the drugs and vehicle controls were injected to the mice intraperitoneally.
as §13

[6] = Balb/C, mouse, plasma, mice, single 40 mg/kg oral dose
[7] = Balb/C, mouse, plasma, mice, read-out: half-life (converted)
[8] = mice, single 40 mg/kg oral dose
[9] = mouse, plasma, Balb/C mice, single dose IP 40 mg/kg
[10] = mouse, plasma, Balb/C mice, single dose IV 5 mg/kg
[11] = mouse, plasma, Balb/C mice, single dose PO 10 mg/kg
[12] = mouse, plasma, Balb/C mice, single dose PO 40 mg/kg
[13] = intraperitoneal, anti-PD-1 10 mg/kg BIW, ARI-164 40 mg/kg QD
[14] = Balb/C, mouse, plasma, mice, single 40 mg/kg oral dose, from mean profile
[15] = mice, single 40 mg/kg oral dose, Mean
[16] = mice, single 40 mg/kg oral dose, individual mouse (M1-M3), 40 mg/kg

CCC(=O)c1csc(C(=O)c2c[nH]c3cc(F)ccc23)n1 [ARI-143, 1-(2-(6-fluoro-1H-indole-3-carbonyl)thiazol-4-yl)propan-1-one]
TGI ([1]; (susp), study day 6): 0.1%
TGI ([1]; (susp), study day 10): −10.1%
TGI ([1]; (susp), study day 13): 0.6%
TGI ([1]; (susp), study day 17): 30.9%
TGI ([1]; (susp), study day 20): 41.0%
TGI ([1]; (susp), study day 24): 53.2%
TGI ([1]; (susp), study day 27): 51.8%
TGI ([1]; (susp), study day 31): 54.8%

CC[C@H](N)c1csc(C(=O)c2c[nH]c3cc(F)ccc23)n1 [ARI-186, (S)-(4-(1-aminopropyl)thiazol-2-yl)(6-fluoro-1H-indol-3-yl)methanone]
F* ([2]; Balb/C mice, single dose IP 40 mg/kg (value marked **)): 81.4** %
F* ([2]; Balb/C mice, single dose PO 10 mg/kg): 63.0%
F* ([2]; Balb/C mice, single dose PO 40 mg/kg (value marked **)): 75.7** %
AUC [2, 6]: 73900 ng·h/mL
bioavailability [2, 6]: 75.7%
half-life [2, 7]: ~7.6 h
improvement in AUC over ARI-164 (fold) [2, 8]: 24.6 ×
improvement in oral bioavailability over ARI-164 (fold) [2, 8]: 5.0 ×
Cmax [2, 9]: 6230 ng/mL
MRT last [2, 9]: 11.2 h
Tmax [2, 9]: 0.5 h
AUC(0-t) ([2]; mouse, plasma, Balb/C mice, single dose IP 40 mg/kg, read-out: AUClast): 79400 ng·h/mL
Cmax [2, 10]: 2130 ng/mL
MRT inf [2, 10]: 9.55 h
MRT last [2, 10]: 6.99 h
Tmax [2, 10]: 0.083 h
clearance [2, 10]: 6.18 mL/min/kg
AUC(0-inf) ([2]; mouse, plasma, Balb/C mice, single dose IV 5 mg/kg, read-out: AUCinf): 13500 ng·h/mL
AUC(0-t) ([2]; mouse, plasma, Balb/C mice, single dose IV 5 mg/kg, read-out: AUClast): 12200 ng·h/mL
half-life ([2]; mouse, plasma, Balb/C mice, single dose IV 5 mg/kg, read-out: T1/2 (converted)): 7.62 h
Vd ([2]; mouse, plasma, Balb/C mice, single dose IV 5 mg/kg, read-out: Vss): 3.55 L/kg
Cmax [2, 11]: 1380 ng/mL
MRT inf [2, 11]: 8.21 h
MRT last [2, 11]: 6.76 h
Tmax [2, 11]: 2 h
AUC(0-inf) ([2]; mouse, plasma, Balb/C mice, single dose PO 10 mg/kg, read-out: AUCinf): 17000 ng·h/mL
AUC(0-t) ([2]; mouse, plasma, Balb/C mice, single dose PO 10 mg/kg, read-out: AUClast): 16100 ng·h/mL
half-life ([2]; mouse, plasma, Balb/C mice, single dose PO 10 mg/kg, read-out: T1/2 (converted)): 5.56 h
Cmax [2, 12]: 5000 ng/mL
MRT last [2, 12]: 9.35 h
Tmax [2, 12]: 2 h
AUC(0-t) ([2]; mouse, plasma, Balb/C mice, single dose PO 40 mg/kg, read-out: AUClast): 73900 ng·h/mL
TGI ([3]; 20 mg/kg, study day 0): −2.0%
TGI ([3]; 20 mg/kg, study day 4): −13.0%
TGI ([3]; 20 mg/kg, study day 7): −0.3%
TGI ([3]; 20 mg/kg, study day 11): 27.0%
TGI ([3]; 20 mg/kg, study day 14): 49.5%
TGI ([3]; 20 mg/kg, study day 18): 61.9%
tumor inhibition versus vehicle ([3]; 20 mpk i.p. QD, study day 18): 62%

CC[C@H](O)c1csc(C(=O)c2c[nH]c3cc(F)ccc23)n1 [ARI-164, (S)-(6-Fluoro-1H-indol-3-yl)(4-(1-hydroxypropyl)thiazol-2-yl)methanone]
tumor inhibition (in words) ([4]; combination with anti-PD-1 antibody, study day 24): significant tumor inhibition
TGI (%) [4, 13]: 46.9%
effect on tumor growth (in words) ([5]; ARI-164 alone, 40 mg/kg i.p.): delay tumor growth
tumor growth inhibition (in words) ([5]; combination with anti-PD-1 antibody, study day 31): statistically significant delta in tumor growth inhibition
TGI (%) [5, 13]: 45.3%
AUC [2, 6]: 3010 ng·h/mL
bioavailability [2, 6]: 15.1%
Cmax [2, 14]: 1870 ng/mL
Tmax [2, 14]: 0.5 h
AUC(0-t) ([2]; Balb/C, mouse, plasma, mice, single 40 mg/kg oral dose, from mean profile, read-out: AUC0-t): 3010 ng·h/mL
AUC(0-inf) ([2]; Balb/C, mouse, plasma, mice, single 40 mg/kg oral dose, from mean profile, read-out: AUC0-∞): 3020 ng·h/mL
half-life ([2]; Balb/C, mouse, plasma, mice, single 40 mg/kg oral dose, from mean profile, read-out: t1/2 (converted)): 1.4 h
half-life [2, 7]: 1.4 h
plasma concentration at 0.083 hr [2, 15]: 206.7
plasma concentration at 0.25 hr [2, 15]: 1623
plasma concentration at 0.5 hr [2, 15]: 1867
plasma concentration at 1 hr [2, 15]: 1193
plasma concentration at 2 hr [2, 15]: 506
plasma concentration at 4 hr [2, 15]: 82.8
plasma concentration at 8 hr [2, 15]: 7.1
plasma concentration at 12 hr [2, 15]: 6.5
plasma concentration at 24 hr ([2]; mice, single 40 mg/kg oral dose, individual mouse (M1-M3)): BLQ
plasma concentration at 0.083 hr [2, 16]: 330 and 202 and 88
plasma concentration at 0.25 hr [2, 16]: 1780 and 1740 and 1350
plasma concentration at 0.5 hr [2, 16]: 1960 and 2020 and 1620
plasma concentration at 1 hr [2, 16]: 1050 and 1600 and 930
plasma concentration at 2 hr [2, 16]: 463 and 572 and 482
plasma concentration at 4 hr [2, 16]: 101 and 79.3 and 68.2
plasma concentration at 8 hr [2, 16]: 7.1 and BLQ (2×)
plasma concentration at 12 hr [2, 16]: 7.5 and BLQ and 5.6
TGI ([1]; study day 6): 0.1%
TGI ([1]; study day 10): −10.8%
TGI ([1]; study day 13): −2.4%
TGI ([1]; study day 17): 20.8%
TGI ([1]; study day 20): 41.6%
TGI ([1]; study day 24): 54.7%
TGI ([1]; study day 27): 54.3%
TGI ([1]; study day 31): 56.2%
TGI ([3]; 80 mg/kg, study day 0): −0.6%
TGI ([3]; 80 mg/kg, study day 4): −4.4%
TGI ([3]; 80 mg/kg, study day 7): −8.4%
TGI ([3]; 80 mg/kg, study day 11): 26.6%
TGI ([3]; 80 mg/kg, study day 14): 40.6%
TGI ([3]; 80 mg/kg, study day 18): 35.3%
tumor inhibition versus vehicle ([3]; 80 mpk i.p. QD, study day 18): 35%
